This note sets out measurements from patent US11180483B2, “Substituted reverse pyrimidine Bmi-1 inhibitors” (PTC Therapeutics, Inc., priority 2012, dated 2021).

pEC50: −log10 of the molar value.

The test concerns Bmi-1. As to the kind of experiment: Sandwich ELISA Assay (Bmi-1 ELISA) in HT-1080 cells. Type of test: cell-based. The method, then: Cell Seeding and Compound Treatment (Day 1):
HT-1080 cells were seeded at 8000 cells/well (50 μL) in 96-well tissue culture plates. After the cells became adherent (3-4 hours), 2× diluted stocks of test compounds in 50 μL DMEM containing 1% DMSO (final DMSO concentration was 0.5%) were added and the plates were incubated at 37° C. under 5% CO2 for 40-48 hours.
ELISA Plate First Antibody Preparation (Day 2):
The First Antibody (Millipore Mouse, monoclonal to mouse Bmi-1, clone F6, catalog #05-637) diluted to 2 μg/mL in PBS was added (100 μL) to each well of a Nunc MaxiSorp 96-well ELISA plate. The plate was covered with a plate seal and allowed to stand overnight.
Cell Lysate Preparation (Day 3):
Fresh 1× Lysis buffer was prepared on the day of the assay as follows: 1 mM EDTA, 150 mM NaCl, 0.5% Triton-X 100, 10 mM NaF, 20 mM B-Glycerophosphate, 1 mM DTT (in PBS, pH 7.2-7.4) and 1× HALT protease inhibitor cocktail (Pierce #78410).
The 1× Lysis Buffer (40 μL) was added to each well and the plate was shaken for 5-10 minutes on an orbital shaker to allow cell lysis, then diluent (1% BSA in PBS in 0.5% NP40) (100 μL) was added to each well.
A standard curve was prepared at the following Bmi-1 concentrations: 8000, 4000, 2000, 1000, 500, 250, 125, 0 pg/mL The Bmi-1 Recombinant Protein Standard (Novus Biologicals PCGF4 Recombinant Protein (P01), catalog #H00000648-P01) used to prepare the standard curve was stored at −80° C. On first thaw, the Bmi-1 Recombinant Protein Standard was diluted to […] in Blocking Buffer (1% BSA in PBS; BSA: Fisher Scientific Catalog #1600-100). Aliquots were taken and refrozen at −80° C. The aliquots may be kept at 4° C. and reused after first thaw, but only within 1-2 weeks. The Bmi-1 Recombinant Protein Standard contains a GST-fusion tag that appears around 70 Kda on Western Blot.
The prepared ELISA plate was washed 3× with Wash Buffer (0.05% Tween-20 in PBS). The final wash was removed from the plate and the plate was blotted dry. Blocking Buffer (300 μL) (1% BSA in PBS) was added to each well. The plate was covered with a plate seal and incubated at room temperature for 1 hour. The blocked plate was washed 3× with Wash Buffer, then the final wash was removed and the plate was blotted dry. The previously prepared samples and standards were added (100 μL/well) and the plate was covered with a plate seal and incubated at 4° C. overnight.
The prepared ELISA plate was removed from 4° C., incubated at room temperature for 30 minutes, then washed and blotted dry as previously described for Day 3. The Second Antibody (Cell Signaling Rabbit anti-Bmi-1, Cat #2830) diluted to 1:600 in Blocking Buffer was added (100 μL) to each well, except as needed for background control wells. The plate was covered with a plate seal and incubated for 1.5 hrs at room temperature.
The ELISA plate was washed and blotted dry as previously described. The Third Antibody (Cell Signaling HRP conjugated anti-rabbit IgG (CellSignaling, Cat #:7074) diluted to 1:300 in Blocking Buffer was added (100 μL) to each well, except as needed for background control wells. The plate was incubated for 1 hr at room temperature.
The plate was washed and blotted dry as previously described, then prepared TMB substrate (TMB substrate kit, Pierce catalog #34021) (prepared by mixing kit reagents 1:1) (100 μL) was added per well. The plate was incubated for 20-30 minutes at room temperature in the dark, then Stop Solution (2 M sulfuric acid in water) (50 μL) was added per well. The plates were read at OD450 (experimental) and OD570 (reference).
As to `FC(F)(F)c1nc2ccccn2c1-c1nccc(Nc2ccc3c(c2)OCCO3)n1` [Cpd 29, N-(2,3-dihydro-1,4-benzodioxin-6-yl)-2-[2-(trifluoromethyl)imidazo[1,2-a]pyridin-3-yl]pyrimidin-4-amine], the pEC50 was 7.00 to 8.00.
Then `COc1ccc(Nc2ccnc(-c3c(C(F)(F)F)nc4ccccn34)n2)cn1` [Cpd 30, N-(6-methoxypyridin-3-yl)-2-[2-(trifluoromethyl)imidazo[1,2-a]pyridin-3-yl]pyrimidin-4-amine], with 5.52 to 7.00; and `CN(C)c1ccc(Nc2ccnc(-c3c(C(F)(F)F)nc4ccccn34)n2)cn1` [Cpd 31, N^2,N^2-dimethyl-N^5-{2-[2-(trifluoromethyl)imidazo[1,2-a]pyridin-3-yl]pyrimidin-4-yl]pyridine-2,5-diamine], with 7.00 to 8.00.
Compound `FC(F)(F)c1ccc(Nc2ccnc(-c3c(C(F)(F)F)nc4ccc(Br)cn34)n2)cc1` [Cpd 32, 2-[6-bromo-2-(trifluoromethyl)imidazo[1,2-a]pyridin-3-yl]-N-[4-(trifluoromethyl)phenyl]pyrimidin-4-amine] showed a pEC50 of 5.52 to 7.00.
The compound `COc1ccc(Nc2ccnc(-c3c(C(F)(F)F)nc4ccc(Br)cn34)n2)cc1` [Cpd 33, 2-[6-bromo-2-(trifluoromethyl)imidazo[1,2-a]pyridin-3-yl]-N-(4-methoxyphenyl)pyrimidin-4-amine] had a pEC50 of 7.00 to 8.00.
The compound `COc1ccc(Nc2ccnc(-c3c(C(F)(F)F)nc4ccccn34)n2)cc1F` [Cpd 34, N-(3-fluoro-4-methoxyphenyl)-2-[2-(trifluoromethyl)imidazo[1,2-a]pyridin-3-yl]pyrimidin-4-amine] gave a pEC50 of 8.00 to 9.00.
Consider `COc1ccc(Nc2ccnc(-c3c(C(F)(F)F)nc4ccccn34)n2)cc1Cl` [Cpd 35, N-(3-chloro-4-methoxyphenyl)-2-[2-(trifluoromethyl)imidazo[1,2-a]pyridin-3-yl]pyrimidin-4-amine], for which the pEC50 was 5.52 to 7.00.
`Cc1ccc(Nc2ccnc(-c3c(C(F)(F)F)nc4ccccn34)n2)cc1Cl` [Cpd 36, N-(3-chloro-4-methylphenyl)-2-[2-(trifluoromethyl)imidazo[1,2-a]pyridin-3-yl]pyrimidin-4-amine] gave a pEC50 of 7.00 to 8.00.
With `CCOc1ccc(Nc2ccnc(-c3c(C(F)(F)F)nc4ccccn34)n2)cc1` [Cpd 37, N-(4-ethoxyphenyl)-2-[2-(trifluoromethyl)imidazo[1,2-a]pyridin-3-yl]pyrimidin-4-amine], the pEC50 was 7.00 to 8.00.
`CC(C)c1ccc(Nc2ccnc(-c3c(C(F)(F)F)nc4ccccn34)n2)cc1` [Cpd 38, N-[4-(propan-2-yl)phenyl]-2-[2-(trifluoromethyl)imidazo[1,2-a]pyridin-3-yl]pyrimidin-4-amine] showed a pEC50 of 5.52 to 7.00.
The compound `FC(F)(F)c1nc2ccccn2c1-c1nccc(Nc2ccc(-n3cccn3)cc2)n1` [Cpd 39, N-[4-(1H-pyrazol-1-yl)phenyl]-2-[2-(trifluoromethyl)imidazo[1,2-a]pyridin-3-yl]pyrimidin-4-amine] had a pEC50 of 5.52 to 7.00.
Then `COc1ccc(Nc2ccnc(-n3c(C)nc4ccccc43)n2)cc1Cl` [Cpd 40, N-(3-chloro-4-methoxyphenyl)-2-(2-methyl-1H-benzimidazol-1-yl)pyrimidin-4-amine], with 5.52 to 7.00; and `Cc1nc2ccccc2n1-c1nccc(Nc2ccc(C(F)(F)F)cc2)n1` [Cpd 41, 2-(2-methyl-1H-benzimidazol-1-yl)-N-[4-(trifluoromethyl)phenyl]pyrimidin-4-amine], with 5.52 to 7.00.
Turning to `COc1ccc(Nc2ccnc(-n3c(C(F)(F)F)nc4ccccc43)n2)cc1Cl` [Cpd 42, N-(3-chloro-4-methoxyphenyl)-2-[2-(trifluoromethyl)-1H-benzimidazol-1-yl]pyrimidin-4-amine], the negative-log EC50 (pEC50) was 7.00 to 8.00.
Then `Cc1ccc(Nc2nc(-c3c(C(F)(F)F)nc4ccccn34)ncc2F)cc1` [Cpd 43, 5-fluoro-N-(4-methylphenyl)-2-[2-(trifluoromethyl)imidazo[1,2-a]pyridin-3-yl]pyrimidin-4-amine], with 7.00 to 8.00; and `Cc1ccc(Nc2nc(-c3c(C(F)(F)F)nc4ccccn34)ncc2Cl)cc1` [Cpd 44, 5-chloro-N-(4-methylphenyl)-2-[2-(trifluoromethyl)imidazo[1,2-a]pyridin-3-yl]pyrimidin-4-amine], with 5.52 to 7.00; and `COc1ccc(Nc2ccnc(-c3c(C(F)(F)F)nc4cnccn34)n2)cc1` [Cpd 45, N-(4-methoxyphenyl)-2-[2-(trifluoromethyl)imidazo[1,2-a]pyrazin-3-yl]pyrimidin-4-amine], with 5.52 to 7.00.
Then `FC(F)(F)c1ccc(Nc2ccnc(-c3c(C(F)(F)F)nc4cnccn34)n2)cc1` [Cpd 46, 2-[2-(trifluoromethyl)imidazo[1,2-a]pyrazin-3-yl]-N-[4-(trifluoromethyl)phenyl]pyrimidin-4-amine], with 5.52 to 7.00; and `FC(F)(F)c1nc2cnccn2c1-c1nccc(Nc2ccc(Cl)cc2)n1` [Cpd 47, N-(4-chlorophenyl)-2-[2-(trifluoromethyl)imidazo[1,2-a]pyrazin-3-yl]pyrimidin-4-amine], with 5.52 to 7.00; and `COc1ccc2nc(C(F)(F)F)c(-c3nccc(Nc4ccc(C(F)(F)F)cc4)n3)n2c1` [Cpd 48, 2-[6-methoxy-2-(trifluoromethyl)imidazo[1,2-a]pyridin-3-yl]-N-[4-(trifluoromethyl)phenyl]pyrimidin-4-amine], with 5.52 to 7.00.
Then `COc1ccc2nc(C(F)(F)F)c(-c3nccc(Nc4ccc(OC(F)(F)F)cc4)n3)n2c1` [Cpd 49, 2-[6-methoxy-2-(trifluoromethyl)imidazo[1,2-a]pyridin-3-yl]-N-[4-(trifluoromethoxy)phenyl]pyrimidin-4-amine], with 5.52 to 7.00.
The compound `COc1ccc(Nc2ccnc(-c3c(C(F)(F)F)nc4ccc(OC)cn34)n2)cc1` [Cpd 50, N-(4-methoxyphenyl)-2-[6-methoxy-2-(trifluoromethyl)imidazo[1,2-a]pyridin-3-yl]pyrimidin-4-amine] had a pEC50 of 7.00 to 8.00.
The compound `COc1ccc2nc(C(F)(F)F)c(-c3nccc(Nc4ccc(OC(F)F)cc4)n3)n2c1` [Cpd 51, N-[4-(difluoromethoxy)phenyl]-2-[6-methoxy-2-(trifluoromethyl)imidazo[1,2-a]pyridin-3-yl]pyrimidin-4-amine] showed a pEC50 of 5.52 to 7.00.
As to `Cc1nc2ccccc2n1-c1nc(NCCO)cc(Nc2ccc(OC(F)F)cc2)n1` [Cpd 52, 2-{[6-{[4-(difluoromethoxy)phenyl]amino}-2-(2-methyl-1H-benzimidazol-1-yl)pyrimidin-4-yl]amino}ethanol], the pEC50 is 5.52 to 7.00.
In turn, `FC(F)Oc1ccc(Nc2ccnc(-c3c(C(F)(F)F)nc4cnccn34)n2)cc1` [Cpd 53, N-[4-(difluoromethoxy)phenyl]-2-[2-(trifluoromethyl)imidazo[1,2-a]pyrazin-3-yl]pyrimidin-4-amine] gave a pEC50 of 5.52 to 7.00.
`Fc1ccc2nc(C(F)(F)F)c(-c3nccc(Nc4ccc(C(F)(F)F)cc4)n3)n2c1` [Cpd 54, 2-[6-fluoro-2-(trifluoromethyl)imidazo[1,2-a]pyridin-3-yl]-N-[4-(trifluoromethyl)phenyl]pyrimidin-4-amine] gave a pEC50 of 5.52 to 7.00.
`Fc1ccc2nc(C(F)(F)F)c(-c3nccc(Nc4ccc(OC(F)F)cc4)n3)n2c1` [Cpd 55, N-[4-(difluoromethoxy)phenyl]-2-[6-fluoro-2-(trifluoromethyl)imidazo[1,2-a]pyridin-3-yl]pyrimidin-4-amine]: the pEC50 was 5.52 to 7.00.
With `FC(F)(F)c1ccc(Nc2ccnc(-c3c(C(F)(F)F)nn4ccccc34)n2)cc1` [Cpd 56, N-[4-(trifluoromethyl)phenyl]-2-[2-(trifluoromethyl)pyrazolo[1,5-a]pyridin-3-yl]pyrimidin-4-amine], the pEC50 is 5.52 to 7.00.
